Source: patent US7863332B2, “Biaromatic compound activators of PPARγ receptors and cosmetic/pharmaceutical compositions comprised thereof” (Galderma Research & Development, priority 2004, dated 2011)
pKd: −log10 of the molar value.

Assays:
Format in all cases: cell-based
PPARγ = molecular target: T1, PPARγ (Homo sapiens, UniProt P37231); assay: Cross-curve PPAR transactivation test (PPARγ); details: HeLN cells, Gal-hPPARγ, luciferase reporter; cross curves against reference agonist, Schild regression; n.a means not active; read-out: PPAR gamma Kd app
T1 sequence (P37231 238-505 limits assumed): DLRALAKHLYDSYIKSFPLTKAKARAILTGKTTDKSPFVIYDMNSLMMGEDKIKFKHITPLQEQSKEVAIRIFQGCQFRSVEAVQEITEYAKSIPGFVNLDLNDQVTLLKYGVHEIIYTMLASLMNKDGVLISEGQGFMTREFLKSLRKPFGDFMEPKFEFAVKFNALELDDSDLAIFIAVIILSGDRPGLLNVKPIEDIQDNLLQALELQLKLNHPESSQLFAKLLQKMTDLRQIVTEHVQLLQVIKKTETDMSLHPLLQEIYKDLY
Protocol: (§1) The activation of PPAR receptors with an agonist (activator) in HeLN cells leads to the expression of a reporter gene, luciferase, which, in the presence of a substrate, generates light. The modulation of the PPAR receptors is measured by quantifying the luminescence produced after incubating the cells in the presence of a reference agonist. The ligands displace the agonist from its site. The measurement of the activity is performed by quantifying the light produced. This measurement makes it possible to determine the modulatory activity of the compounds according to the invention by determining the constant that is the affinity of the molecule for the PPAR receptor. Since this value can fluctuate depending on the basal activity and the expression of the receptor, it is referred to as Kd apparent (KdApp in nM).
(§2) To determine this constant, “cross curves” of the test product against a reference agonist are produced in a 96-well plate: 10 concentrations of the test product plus a concentration 0 are arranged in a line, and 7 concentrations of the agonist plus a concentration 0 are arranged in a column. This is 88 measurement points for 1 product and 1 receptor. The remaining 8 wells are used for repeatability controls.
(§3) Measurements are also taken for total agonist controls with the same products.
(§4) The HeLN cell lines used are stable transfectants containing the plasmids ERE-βGlob-Luc-SV-Neo (reporter gene) and PPAR (α, δ, γ) Gal-hPPAR. These cells are inoculated into 96-well plates at a rate of 10 000 cells per well in 100 μl of DMEM medium without phenol red and supplemented with 10% of defatted calf serum. The plates are then incubated at 37° C. and 7% CO2 for 16 hours.
(§5) The various dilutions of the test products and of the reference ligand are added at a rate of 5 μl per well. The plates are then incubated for 18 hours at 37° C. and 7% CO2. The culture medium is removed by turning over and 100 μl of a 1:1 PBS/luciferin mixture are added to each well. After 5 minutes, the plates are read by the luminescence detector.

[1] = test system: sebocytes obtained from rat preputial glands; assay: Rat sebocyte culture test; details: 120 h, 14C acetate-labelled lipids, 5 days incubation + 24 hours label, read-out: Triglycerides AC50
Excerpt: Sebocytes in culture obtained from rat preputial gland constitute a pertinent model for evaluating sebaceous function modulatory compounds as described by Rosenfield et al. (Mechanisms of androgen induction of sebocyte differentiation. Rosenfield R. L., Deplewski D., Kentsis A., Ciletti N., Dermatology, 1998; 196(1):43-6). This model has especially been used to characterize PPAR compounds with potential in dermatology (Rat preputial sebocyte differentiation involves peroxisome proliferator-activated receptors. Rosenfield R. L., Kentsis A., Deplewski D., Ciletti N., J. Invest. Dermatol., 1999 February; 112(2):226-32). These sebocytes have functional similarities close to those of human skin sebocytes (response to androgens and to anti-androgens, accumulation of specific sebum lipids, expression of specific markers of the sebaceous gland). The data resulting from this test are considered as pertinent of potential activity on the human sebaceous gland.
Protocol for culturing sebocytes obtained from rat preputial glands
The preputial glands are obtained from 10-week-old male rats. They are extracted under anesthesia with isoflurane, before euthanizing the animals. The glands are then digested enzymatically with trypsin (0.25% trypsin+collagenase H 1.5 mg/ml/gland). The cells are cultured for 24 hours in 24-well plates (37° C., 5% CO2) in DMEM culture medium supplemented with various factors, especially fetal calf serum (10%), glutamine (1%), a cocktail of antibiotics and anti-mycotic agents and insulin (5 μg/ml). The cells are then placed in Cellgro medium supplemented with various factors (Mediatech®) and the test compounds are then added in response doses (duplicate). After incubation for 5 days, 10 μl of radio labeled (^14C) acetate are added to the culture medium (0.2 μCi/μl, Amersham). The cells are incubated for 24 hours and then washed and recovered after digestion with trypsin. The radiolabelled lipids are then extracted using a methanol/dichloromethane mixture (1/2) and placed on a silica TLC plate (Merck®) using a loading robot. The lipids are then separated and quantified after revelation using a Phosphorimager (analysis by image analysis software). For each compound, the AC50 (concentration for which 50% of the effect of the compound is obtained) is determined. The results are expressed as nanomolar concentration for the following specific sebaceous gland lipids: Triglycerides and/or Cholesterol esters.

PPARα = molecular target: T2, PPARα (Homo sapiens, UniProt Q07869); assay: Cross-curve PPAR transactivation test (PPARα); details: HeLN cells, Gal-hPPARα, luciferase reporter; cross curves against reference agonist, Schild regression; n.a means not active; read-out: PPAR alpha Kd app
T2 sequence (Q07869 202-468 limits assumed): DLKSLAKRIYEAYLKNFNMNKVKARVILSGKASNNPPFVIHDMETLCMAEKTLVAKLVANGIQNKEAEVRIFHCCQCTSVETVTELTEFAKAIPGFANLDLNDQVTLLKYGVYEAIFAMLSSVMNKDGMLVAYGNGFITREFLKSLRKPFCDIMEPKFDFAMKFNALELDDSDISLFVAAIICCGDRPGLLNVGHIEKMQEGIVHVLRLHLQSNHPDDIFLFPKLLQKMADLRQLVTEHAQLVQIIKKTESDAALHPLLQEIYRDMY
Protocol: as §1, §2, §3, §4, §5

PPARδ = molecular target: T3, PPARδ (Homo sapiens, UniProt Q03181); assay: Cross-curve PPAR transactivation test (PPARδ); details: HeLN cells, Gal-hPPARδ, luciferase reporter; cross curves against reference agonist, Schild regression; n.a means not active; read-out: PPARs delta Kd app
T3 sequence (Q03181 171-441 limits assumed): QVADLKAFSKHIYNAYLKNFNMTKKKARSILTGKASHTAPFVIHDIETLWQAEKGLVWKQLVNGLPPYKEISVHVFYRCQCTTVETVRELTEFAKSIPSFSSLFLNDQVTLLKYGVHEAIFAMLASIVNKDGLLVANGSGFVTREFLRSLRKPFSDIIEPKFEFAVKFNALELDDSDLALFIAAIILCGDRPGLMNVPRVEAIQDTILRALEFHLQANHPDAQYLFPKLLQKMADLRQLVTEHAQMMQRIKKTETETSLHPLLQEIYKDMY
Protocol: as §1, §2, §3, §4, §5

CCCCCCCNC(=O)N(C)c1cccc(-c2ccc(CCC(=O)O)cc2OCc2ccc(F)cc2)c1 [Example 44, 3-[2-(4-fluorobenzyloxy)-3′-(3-heptyl-1-methylureido)biphenyl-4-yl]propanoic acid]
pKd (PPARγ): 9.00 | AC50 [1]: 0.008 nM | pKd (PPARα): 6.00

CCCCCCCNC(=O)N(C)c1cccc(-c2ccc(CCC(=O)O)cc2OCCCC(F)(F)F)c1 [Example 38, 3-[3′-(3-heptyl-1-methylureido)-2-(4,4,4-trifluorobutoxy)biphenyl-4-yl]propanoic acid]
pKd (PPARγ): 9.00 | AC50 [1]: 0.006 nM | pKd (PPARα): 6.60

CCCCCCCNC(=O)N(C)c1cccc(-c2ccc(CCC(=O)O)cc2OCCCC)c1 [Example 26, 3-[2-butoxy-3′-(3-heptyl-1-methylureido)biphenyl-4-yl]propanoic acid]
pKd (PPARδ): 6.00 | pKd (PPARγ): 9.60 | AC50 [1]: 0.005 nM | pKd (PPARα): 6.60

CCCCCNC(=O)N(C)c1cccc(-c2ccc(CCC(=O)O)cc2OCCCC)c1 [Example 41, 3-[2-butoxy-3′-(1-methyl-3-pentylureido)biphenyl-4-yl]propanoic acid]
pKd (PPARδ): 5.70 | pKd (PPARγ): 9.30 | AC50 [1]: 0.008 nM | pKd (PPARα): 7.22

CCCCCCCNC(=O)N(C)c1cccc(-c2ccc(CCC(=O)O)cc2OCCC(C)C)c1 [Example 16, 3-[3′-(3-heptyl-1-methylureido)-2-(3-methylbutoxy)biphenyl-4-yl]propanoic acid]
pKd (PPARγ): 9.00 | AC50 [1]: 0.008 nM | pKd (PPARα): 6.00
